The record followed here is US20250235460A1, “COMBINATION THERAPY USING GLUCOSE-DEPENDENT INSULINOTROPIC POLYPEPTIDE RECEPTOR ANTAGONIST COMPOUNDS AND GLP-1 RECEPTOR AGONIST COMPOUNDS” (Pfizer Inc., priority 2024, published 2025).

The structures appear in SMILES notation. pEC50: −log10 of the molar value. Where a name gives a salt, the structure may show the parent alone. Read-outs that look alike come from different tables or passages of the source.

Assay [1] concerns the target human GLP-1R (Homo sapiens, UniProt P43220, G168S). Kind of assay: CHO GLP-1R Clone H6 cAMP HTRF agonist assay (Assay 1, high receptor density). Type of assay: cell-based. Conditions: for pEC50: geometric mean; for Emax: read-out: Assay 1 Emax (%). The method, boiled down: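 From replicate determinations, mean EC50 (geometric) and mean Emax (arithmetic) were derived and expressed to two significant figures.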

For assay [2], the target named is human GLP-1R (Homo sapiens, UniProt P43220, L260F). The assay can be described thus: CHO GLP-1R Clone C6 cAMP HTRF agonist assay (Assay 2, low receptor density). Type of assay: cell-based. Conditions: for pEC50: geometric mean. The text has this: In Table 5 and Table 6, assay data are presented to two (2) significant figures as the geometric mean (EC50s) and arithmetic mean (Emax) based on the number of replicates listed (Number). A blank cell means there was no data for that Example or the Emax was not calculated.

The mark [3] stands for this setting: CHO GLP-1R clone H6, arithmetic mean, relative to saturating GLP-1 (1 μM).
[4] abbreviates: CHO GLP-1R clone C6, arithmetic mean, relative to saturating GLP-1 (1 μM).

Chain of human GLP-1R (Homo sapiens, UniProt P43220, G168S) (P43220 24-463 G168S): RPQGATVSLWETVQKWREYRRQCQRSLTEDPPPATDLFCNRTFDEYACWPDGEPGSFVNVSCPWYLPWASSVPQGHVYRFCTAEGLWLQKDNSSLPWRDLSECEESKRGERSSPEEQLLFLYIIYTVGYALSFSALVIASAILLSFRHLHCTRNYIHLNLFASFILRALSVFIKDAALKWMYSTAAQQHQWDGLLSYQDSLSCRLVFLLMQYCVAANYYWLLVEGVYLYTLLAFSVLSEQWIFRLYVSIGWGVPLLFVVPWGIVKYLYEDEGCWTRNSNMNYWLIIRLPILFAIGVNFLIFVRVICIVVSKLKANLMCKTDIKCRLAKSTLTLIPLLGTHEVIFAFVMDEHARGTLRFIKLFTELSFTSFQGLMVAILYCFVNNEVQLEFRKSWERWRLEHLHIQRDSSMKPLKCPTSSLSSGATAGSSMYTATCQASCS
Chain of human GLP-1R (Homo sapiens, UniProt P43220, L260F) (P43220 24-463 L260F): as the sequence (P43220 24-463 G168S) above, with S145G, L237F counted along it

In turn, `C[C@H]1CN(c2cccc(OCc3ccc(C#N)cc3F)n2)CCN1Cc1nc2ccc(C(=O)O)nc2n1Cc1ncco1` [Compound 215B, 2-{[(2S)-4-{6-[(4-cyano-2-fluorobenzyl)oxy]pyridin-2-yl}-2-methylpiperazin-1-yl]methyl}-3-(1,3-oxazol-2-ylmethyl)-3H-imidazo [4,5-b]pyridine-5-carboxylic acid] gave a pEC50 on human GLP-1R [1] (CHO GLP-1R clone H6, cAMP HTRF) of 8.47. In addition, the Emax stood at 73% on human GLP-1R [1] (setting [3]) and 89% at human GLP-1R [2] (setting [4]).

In the case of `COCCn1c(CN2CCC(c3cccc(OCc4ccc(Cl)cc4F)n3)CC2)nc2ncc(C(=O)O)nc21` [Compound 207B, 2-[(4-{6-[(4-chloro-2-fluorobenzyl)oxy]pyridin-2-yl}piperidin-1-yl)methyl]-1-(2-methoxyethyl)-1H-imidazo[4,5-b]pyrazine-6-carboxylic acid], the pEC50 on human GLP-1R [1] (CHO GLP-1R clone H6, cAMP HTRF) was 8.24; at human GLP-1R [2] (CHO GLP-1R clone C6, cAMP HTRF), 6.89. Also, the Emax on human GLP-1R [1] (setting [3]) stood at 78%; on human GLP-1R [2] (setting [4]), 94%.

As for `Cn1c(CN2CCC(c3cccc(OCc4ccc(Cl)cc4)n3)CC2)nc2ccc(C(=O)O)cc21` [Compound 225B, 2-[(4-{6-[(4-chlorobenzyl)oxy]pyridin-2-yl}piperidin-1-yl)methyl]-1-methyl-1H-benzimidazole-6-carboxylic acid], the pEC50 on human GLP-1R [1] (CHO GLP-1R clone H6, cAMP HTRF) was 7.92; on human GLP-1R [2] (CHO GLP-1R clone C6, cAMP HTRF), 6.85. The Emax on human GLP-1R [1] (setting [3]) was determined as 75%; at human GLP-1R [2] (setting [4]) it was 82%.

Turning to `COCCn1c(CN2CCN(c3cccc(OCc4ccc(Cl)cc4F)n3)C[C@H]2C)nc2ccc(C(=O)O)cc21` [Compound 356B, 2-{[(2R)-4-{6-[(4-chloro-2-fluorobenzyl)oxy]pyridin-2-yl}-2-methylpiperazin-1-yl]methyl}-1-(2-methoxyethyl)-1H-benzimidazole-6-carboxylic acid], the pEC50 is 7.00 on human GLP-1R [1] (CHO GLP-1R clone H6, cAMP HTRF) and 5.96 at human GLP-1R [2] (CHO GLP-1R clone C6, cAMP HTRF). On human GLP-1R [2] (setting [4]), this compound showed an Emax of 75%.

In the case of `C[C@H]1CN(c2cccc(OCc3ccc(C#N)cc3F)n2)CCN1Cc1nc2ccc(C(=O)O)nc2n1C[C@@H]1CCO1` [Compound 137B, 2-{[(2S)-4-{6-[(4-cyano-2-fluorobenzyl)oxy]pyridin-2-yl}-2-methylpiperazin-1-yl]methyl}-3-[(2S)-oxetan-2-ylmethyl]-3H-imidazo[4,5-b]pyridine-5-carboxylic acid], the pEC50 is 7.05 on human GLP-1R [1] (CHO GLP-1R clone H6, cAMP HTRF) and 5.74 at human GLP-1R [2] (CHO GLP-1R clone C6, cAMP HTRF). The maximal effect (Emax) was 76% on human GLP-1R [1] (setting [3]) and 89% on human GLP-1R [2] (setting [4]).

Turning to `Cn1c(CN2CCC(c3cccc(OCc4ccc(Cl)cc4F)n3)CC2)nc2ccc(C(=O)O)nc21` [Compound 199B, 2-((4-(6-((4-Chloro-2-fluorobenzyl)oxy)pyridin-2-yl)piperidin-1-yl)methyl)-3-methyl-3H-imidazo[4,5-b]pyridine-5-carboxylic acid hydrochloride], the pEC50 at human GLP-1R [1] (CHO GLP-1R clone H6, cAMP HTRF) is 8.77; at human GLP-1R [2] (CHO GLP-1R clone C6, cAMP HTRF), 7.35. Besides, the Emax on human GLP-1R [1] worked out at 67%; at human GLP-1R [2] (setting [4]), 83%.

Consider `COCCn1c(CN2CCC(c3cccc(OCc4c(F)cc(Cl)cc4F)n3)CC2)nc2ccc(C(=O)O)cc21` [Compound 220B, 2-((4-(6-((4-chloro-2,6-difluorobenzyl)oxy)pyridin-2-yl)piperidin-1-yl)methyl)-1-(2-methoxyethyl)-1H-benzo[d]imidazole-6-carboxylic acid], for which the pEC50 on human GLP-1R [1] (CHO GLP-1R clone H6, cAMP HTRF) is 9.48; at human GLP-1R [2] (CHO GLP-1R clone C6, cAMP HTRF) it was 7.89. For the same compound, the Emax at human GLP-1R [1] (setting [3]) turned out to be 82%; on human GLP-1R [2] (setting [4]), 110%.

Turning to `COCCN1CCC(Cn2c(CN3CCC(c4cccc(OCc5ccc(Cl)cc5F)n4)CC3)nc3ccc(C(=O)O)cc32)CC1` [Compound 287B, 2-[(4-{6-[(4-chloro-2-fluorobenzyl)oxy]pyridin-2-yl}piperidin-1-yl)methyl]-1-{[1-(2-methoxyethyl)piperidin-4-yl]methyl}-1H-benzimidazole-6-carboxylic acid], the pEC50 at human GLP-1R [1] (CHO GLP-1R clone H6, cAMP HTRF) was 7.55; at human GLP-1R [2] (CHO GLP-1R clone C6, cAMP HTRF), 6.35. In addition, the Emax at human GLP-1R [1] (setting [3]) amounted to 80%; at human GLP-1R [2] (setting [4]) it was 89%.

Regarding `CCn1cncc1Cn1c(CN2CCC(c3cccc(OCc4ccc(C#N)cc4F)n3)CC2)nc2ccc(C(=O)O)cc21` [Compound 162B, 2-[(4-{6-[(4-cyano-2-fluorobenzyl)oxy]pyridin-2-yl}piperidin-1-yl)methyl]-1-[(1-ethyl-1H-imidazol-5-yl)methyl]-1H-benzimidazole-6-carboxylic acid], the negative logarithm of the EC50 (pEC50) at human GLP-1R [1] (CHO GLP-1R clone H6, cAMP HTRF) was 9.47; on human GLP-1R [2] (CHO GLP-1R clone C6, cAMP HTRF) it was 8.13. For the same compound, the figures for the Emax on human GLP-1R [1] (setting [3]) and on human GLP-1R [2] (setting [4]) were 78% and 94%, respectively.

Regarding `Cn1c(CN2CCC(c3cccc(OCc4cc(F)ccc4F)n3)CC2)nc2ccc(C(=O)O)cc21` [Compound 233B, 2-[(4-{6-[(2,5-difluorobenzyl)oxy]pyridin-2-yl}piperidin-1-yl)methyl]-1-methyl-1H-benzimidazole-6-carboxylic acid], the pEC50 at human GLP-1R [1] (CHO GLP-1R clone H6, cAMP HTRF) is 9.25; at human GLP-1R [2] (CHO GLP-1R clone C6, cAMP HTRF) it was 8.02. Moreover, the Emax was determined as 73% at human GLP-1R [1] (setting [3]) and 84% at human GLP-1R [2] (setting [4]).

Take `C[C@H]1CN(c2cccc(OCc3ccc(C#N)cc3)n2)CCN1Cc1nc2ccc(C(=O)O)cc2n1CC1CCCO1` (stereo partly drawn) [Compound 362B, 2-{[(2S)-4-{6-[(4-cyanobenzyl)oxy]pyridin-2-yl}-2-methylpiperazin-1-yl]methyl}-1-(tetrahydrofuran-2-ylmethyl)-1H-benzimidazole-6-carboxylic acid]: the negative-log EC50 (pEC50) on human GLP-1R [1] (CHO GLP-1R clone H6, cAMP HTRF) is 7.92; at human GLP-1R [2] (CHO GLP-1R clone C6, cAMP HTRF), 6.57. For the same compound, the Emax at human GLP-1R [1] (setting [3]) was 64%.

In the case of `C[C@H]1CN(c2cccc(OCc3ccc(C#N)cc3)n2)CCN1Cc1nc2ccc(C(=O)O)cc2n1C[C@@H]1CCO1` [Compound 261B, 2-{[(2S)-4-{6-[(4-cyanobenzyl)oxy]pyridin-2-yl}-2-methylpiperazin-1-yl]methyl}-1-[(2S)-oxetan-2-ylmethyl]-1H-benzimidazole-6-carboxylic acid], on human GLP-1R [1] (setting [3]), the Emax worked out at 100%. Besides, the “Assay 2 Emax (%)” value on human GLP-1R [2] (setting [4]) is on record as 120%.

`N#Cc1ccc(COc2cccc(C3CCN(Cc4nc5ccc(C(=O)O)cc5n4C[C@H]4CCO4)CC3)n2)c(F)c1` [Compound 111B, 2-[(4-{6-[(4-cyano-2-fluorobenzyl)oxy]pyridin-2-yl}piperidin-1-yl)methyl]-1-[(2R)-oxetan-2-ylmethyl]-1H-benzimidazole-6-carboxylic acid]: the Emax at human GLP-1R [1] (setting [3]) came to 75%; on human GLP-1R [2] (setting [4]) it was 67%.

`CCn1cncc1Cn1c(CN2CCC(c3cccc(OCc4ccc(F)cc4F)n3)CC2)nc2ccc(C(=O)O)cc21` [Compound 150B, 2-[(4-{6-[(2,4-difluorobenzyl)oxy]pyridin-2-yl}piperidin-1-yl)methyl]-1-[(1-ethyl-1H-imidazol-5-yl)methyl]-1H-benzimidazole-6-carboxylic acid]: the pEC50 was 6.96 at human GLP-1R [1] (CHO GLP-1R clone H6, cAMP HTRF) and 5.52 on human GLP-1R [2] (CHO GLP-1R clone C6, cAMP HTRF). Further, the Emax stood at 71% on human GLP-1R [1] (setting [3]) and 92% on human GLP-1R [2] (setting [4]).

Turning to `CCn1cncc1Cn1c(CN2CCC(c3cccc4c3OC(C)(c3ccc(Cl)cc3F)O4)CC2)nc2ccc(C(=O)O)cc21.N` (single isomer, unassigned; ent-2) [Compound 22B, Ammonium 2-({4-[2-(4-chloro-2-fluorophenyl)-2-methyl-1,3-benzodioxol-4-yl]piperidin-1-yl}methyl)-1-[(1-ethyl-1H-imidazol-5-yl)methyl]-1H-benzimidazole-6-carboxylate, ENT-2], the pEC50 on human GLP-1R [1] (CHO GLP-1R clone, cAMP HTRF) is 6.68; at human GLP-1R [2] (CHO GLP-1R clone, low receptor density, cAMP HTRF) it was 6.00. For the same compound, the “Assay 2 Emax” value at human GLP-1R [2] (relative to saturating full agonist GLP-1 (1 μM), arithmetic mean) came out at 87%.

Turning to `CC(C)(C)n1cnnc1Cn1c(CN2CCC(c3cccc(OCc4ccc(Cl)cc4F)n3)CC2)nc2ccc(C(=O)O)cc21` [Compound 259B, 1-[(4-tert-butyl-4H-1,2,4-triazol-3-yl)methyl]-2-[(4-{6-[(4-chloro-2-fluorobenzyl)oxy]pyridin-2-yl}piperidin-1-yl)methyl]-1H-benzimidazole-6-carboxylic acid], the pEC50 on human GLP-1R [1] (CHO GLP-1R clone H6, cAMP HTRF) was 9.02; at human GLP-1R [2] (CHO GLP-1R clone C6, cAMP HTRF) it was 7.89. The Emax at human GLP-1R [1] (setting [3]) turned out to be 95%; at human GLP-1R [2] (setting [4]), 91%.

For `COCCn1c(CN2CCN(c3cccc(OCc4ccc(Cl)cc4F)n3)[C@@H](CO)C2)nc2ccc(C(=O)O)cc21` [Compound 185B, 2-{[(3R)-4-{6-[(4-chloro-2-fluorobenzyl)oxy]pyridin-2-yl}-3-(hydroxymethyl)piperazin-1-yl]methyl}-1-(2-methoxyethyl)-1H-benzimidazole-6-carboxylic acid], the pEC50 on human GLP-1R [1] (CHO GLP-1R clone H6, cAMP HTRF) is 9.47; at human GLP-1R [2] (CHO GLP-1R clone C6, cAMP HTRF), 8.66. In addition, the Emax on human GLP-1R [1] (setting [3]) was determined as 89%; on human GLP-1R [2] (setting [4]) it was 97%.

Consider `Cc1nnc(Cn2c(CN3CCC(c4cccc(OCc5ccc(Cl)cc5F)n4)CC3)nc3ccc(C(=O)O)cc32)o1` [Compound 254B, 2-[(4-{6-[(4-chloro-2-fluorobenzyl)oxy]pyridin-2-yl}piperidin-1-yl)methyl]-1-[(5-methyl-1,3,4-oxadiazol-2-yl)methyl]-1H-benzimidazole-6-carboxylic acid], for which the pEC50 on human GLP-1R [1] (CHO GLP-1R clone H6, cAMP HTRF) is 8.30; at human GLP-1R [2] (CHO GLP-1R clone C6, cAMP HTRF), 7.14. Also, the Emax stood at 65% on human GLP-1R [1] (setting [3]) and 87% at human GLP-1R [2] (setting [4]).

`COCCN1CCCC(Cn2c(CN3CCC(c4cccc(OCc5ccc(Cl)cc5F)n4)CC3)nc3ccc(C(=O)O)cc32)C1` (centres unmarked) [Compound 288B, 2-[(4-{6-[(4-chloro-2-fluorobenzyl)oxy]pyridin-2-yl}piperidin-1-yl)methyl]-1-{[1-(2-methoxyethyl)piperidin-3-yl]methyl}-1H-benzimidazole-6-carboxylic acid]: the pEC50 was 7.52 on human GLP-1R [1] (CHO GLP-1R clone H6, cAMP HTRF) and 6.44 on human GLP-1R [2] (CHO GLP-1R clone C6, cAMP HTRF). Besides, the figures for the maximum response (Emax) on human GLP-1R [1] (setting [3]) and at human GLP-1R [2] (setting [4]) were 77% and 89%, respectively.
